What was measured:
HepG2 cells = assay: normal cell proliferation, MTS assay, HepG2; type: cell-based, human; details: HepG2, LMH001 up to 10 μM, 24 h
Description: A) SVEC4-10 cells and HepG2 cells were cultured in the presence or absence of LHM001 (0-10 μM) for 24 h and tested for cell proliferation using a MTS assay kit. B) HL-60 cells were cultured in the presence or absence of LMH001 (0-10 μM), and cell proliferation was examined at 6, 12 and 24 h of culture.
HepG2 is a human hepatocytic cell line (ATCC No. HB-8065) that was originally derived from liver tissue with a well differentiated hepatocellular carcinoma. HepG2 cells have been proven to be a suitable in vitro model system for the study of human hepatocytes, and the study of liver metabolism and toxicity. HepG2 cells were grown in DMEM, containing 10% (v/v) heat inactivated foetal calf serum, 100 U/mL penicillin and […] streptomycin, in a humidified atmosphere at 37° C. with 5% CO2.
The ex vivo proliferative capabilities of isolated BMSC or cultured cells were analyzed using the MTS proliferation assay. […] After 24 hours in culture medium containing LMH001 (0-10 μM), proliferation was assessed using the MTS (CellTiter 96 AQ; Promega, Madison, USA) assay according to the manufacturer's protocol. The absorbance at 490 nm was read using an ELISA plate reader (Perkin elmer), and the proliferation index calculated relative to the controls. The mean of 3 blank readings was subtracted from each corrected value.

[1] = system: human lung alveolar epithelial cancer cells (A549 cells); assay: EGF-induced O2.- production in A549 cells, lucigenin-chemiluminescence; type: cell-based; details: LMH001 5 μM, 24 h
Description: A549 cells were seeded at equal number the day before experiments and then stimulated with or without […] (EGF, 10 ng/ml) for 24 h in the presence or absence of LMH001 (5 μM). Cells were then trypsinized and counted. Cell homogenates were used for measuring O2.^− production by lucigenin-chemiluminescence in the presence of NADPH (100 μM).
A549 is a human lung adenocarcinoma epithelial cell line. A549 cells were grown in DMEM, containing 10% (v/v) heat inactivated foetal calf serum, 100 U/mL penicillin and […] streptomycin, in a humidified atmosphere at 37° C. with 5% CO2.
(§1) O2^− production by different cell types was measured using lucigenin (5 μM)-chemiluminescence. A microplate luminometer (LumiStar, BMG) was used, which allows the examination of 96 samples at the same time with kinetic reading facilities. […] Dark-adapted lucigenin (5 μM) was added into the well through an auto-dispenser located in the dark chamber just before reading. The light emission was recorded over a 60 minute period and expressed as arbitrary MLU measured by the illuminometer. Each experiment was performed in triplicate and the mean of 3 blank readings was subtracted from each corrected value for each reading. […]

[2] = system: human pulmonary endothelial cells (HPMEC); assay: normal versus high glucose level-induced O2.- production, lucigenin-chemiluminescence; type: cell-based; details: LMH001 5 μM, 24 h in culture, NADPH 100 μM
Description: FIG. 11 is a graph showing the effects of LMH001 in culture on normal glucose level versus high glucose level-induced O2.^− production by human pulmonary endothelial cells (HPMEC). HPMEC were cultured in the medium with normal level of glucose (5 mM) or with high level of glucose (40 mM) in the presence or absence of LMH001 (5 μM) for 24 h. Cells were harvested and cell homogenates were used for measuring NADPH (100 μM)-dependent O2.^− production by lucigenin-chemiluminescence (n=3 experiments).
as §1
O2^− production was also studied using total cell homogenate (for the endothelial cells and the fibroblasts). […] Soluble protein concentration was determined using a kit from Bio-Rad Laboratories Ltd. (Hertfordshire, U.K.). […]

O=C(OCc1cccc(O)c1O)c1ccc(O)c(CO)c1 [LMH001, (2,3,-dihydroxyphenyl)methyl 4-hydroxy-3-(hydroxymethyl)benzoate]
normal cell proliferation under physiological condition (HepG2 cells): no significant effect | EGF-induced O2.- production ([1]; EGF 10 ng/ml): inhibited completely | A549 cell O2.- production, LMH001 alone ([1]; no EGF, compared to medium only): no significant effect | cell O2.- production under normal glucose levels ([2]; glucose 5 mM): no significant effect | high glucose level-induced O2.- production ([2]; glucose 40 mM): inhibited completely

From patent US20150045387A1, “Bi-Aromatic And Tri-Aromatic Compounds As NADPH Oxidase 2 (Nox2) Inhibitors” (The University of Surrey, priority 2011, published 2015)
